Patent publication US8163909B2, “Substituted hydroxyethyl amine compounds as beta-secretase modulators and methods of use” (Amgen Inc., priority 2007, dated 2012)
Where two headings read alike, the source gives them in different places.

Columns and labels:
[1] = biological target: Beta Secretase enzyme (BACE) (Homo sapiens, UniProt P56817); experiment: In vitro enzymatic BACE FRET (fluorescence resonance energy transfer) assay; assay type: biochemical;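 further: fluorescence read after 1 h with 50 nM quenched peptide substrate spanning the BACE cleavage site, in pH 4.2 acetate buffer containing 10% DMSO and nonionic detergent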
[2] = system: Aβ40 in conditioned medium of cells stably expressing Amyloid Precursor Protein (APP); experiment: In vitro BACE cell-based assay (Aβ40 in conditioned medium, sandwich ELISA); settings: Homo sapiens;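 further: compounds added as a dilution series, secreted peptide quantified by europium time-resolved fluorescence readout, potency fitted from percent of control versus compound concentration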
[3] = system: Abeta peptide; experiment: In vivo inhibition of beta-secretase (reduction of Abeta peptide in brain and cerebrospinal fluid); parameters: species or system rat; settings: Rattus norvegicus, po, 4 h, orally administered at 30 mg/kg dose, measured after 4 hours;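 further: abeta peptide quantified by sandwich ELISA with electrochemiluminescence readout in rat brain supernatant or CSF, relative to vehicle-dosed control animals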
[4] = biological target: CYP3A4 (CYP3A) (Homo sapiens, UniProt P08684); experiment: in vitro; settings: microsomes, pH 7.4;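 further: inhibition of CYP3A-mediated 1-hydroxymidazolam formation after 10 min incubation with NADPH, quantified by HPLC MS relative to metabolite produced without test compound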
[5] = Microsomal stability assay, rat liver microsomes;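 further: rat liver microsomes (0.25 mg/mL) with about 1 µM compound plus 1 mM NADPH, pH 7.4, 37 °C for 30 min, parent left measured by LC-MS/MS against 0 min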
[6] = Microsomal stability assay, human liver microsomes;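 further: pooled human liver microsomes at 0.25 mg/mL with 1 µM compound and NADPH at 37 °C, pH 7.4, for 30 min, unchanged parent quantified by LC-MS/MS against the 0 min sample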
[7] = biological target: CYP2D6 (Homo sapiens, UniProt P10635); experiment: CYP2D6 inhibition assay (bufuralol, pooled human liver microsomes)
[8] = read-out: BACE1 FRET assay (IC50)
[9] = HEK293, HEK cells, read-out: HEK cell assay (IC50)
[10] = rat cerebrospinal fluid, read-out: percent reduction of abeta peptide in the cerebrospinal fluid of the rat
[11] = rat brain, read-out: percent reduction of abeta peptide in the brain of the rat
[12] = BACE enzyme assay IC50, read-out: BACE1 FRET assay
[13] = HEK293, HEK cell-based assay IC50, read-out: HEK cell assay
[14] = 2D6 IC50 (uM), CYP2D6 inhibition
[15] = BACE enzyme assay, read-out: BACE1 FRET assay
[16] = HEK293, HEK cells, read-out: HEK cell assay
[17] = 2D6 IC50 (uM), CYP enzyme inhibition
[18] = BACE enzyme assay, IC50's in uM, read-out: BACE1 FRET assay
[19] = HEK293, HEK cell-based assay, IC50's in uM, read-out: HEK cell assay

Sequence of Beta Secretase enzyme (BACE) (P56817 46-501): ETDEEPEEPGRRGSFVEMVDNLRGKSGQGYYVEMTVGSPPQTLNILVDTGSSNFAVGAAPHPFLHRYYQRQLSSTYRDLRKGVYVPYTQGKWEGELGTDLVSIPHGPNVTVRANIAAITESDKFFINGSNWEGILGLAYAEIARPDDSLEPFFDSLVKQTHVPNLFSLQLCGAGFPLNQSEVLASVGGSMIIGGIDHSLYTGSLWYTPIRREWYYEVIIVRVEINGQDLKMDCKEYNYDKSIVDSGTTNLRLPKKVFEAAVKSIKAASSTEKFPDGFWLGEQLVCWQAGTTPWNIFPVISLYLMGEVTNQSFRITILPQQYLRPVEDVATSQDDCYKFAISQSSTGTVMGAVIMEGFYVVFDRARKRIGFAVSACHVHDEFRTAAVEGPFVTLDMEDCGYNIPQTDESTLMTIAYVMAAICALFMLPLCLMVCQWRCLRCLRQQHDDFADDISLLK
Sequence of CYP2D6 (P10635 whole entry): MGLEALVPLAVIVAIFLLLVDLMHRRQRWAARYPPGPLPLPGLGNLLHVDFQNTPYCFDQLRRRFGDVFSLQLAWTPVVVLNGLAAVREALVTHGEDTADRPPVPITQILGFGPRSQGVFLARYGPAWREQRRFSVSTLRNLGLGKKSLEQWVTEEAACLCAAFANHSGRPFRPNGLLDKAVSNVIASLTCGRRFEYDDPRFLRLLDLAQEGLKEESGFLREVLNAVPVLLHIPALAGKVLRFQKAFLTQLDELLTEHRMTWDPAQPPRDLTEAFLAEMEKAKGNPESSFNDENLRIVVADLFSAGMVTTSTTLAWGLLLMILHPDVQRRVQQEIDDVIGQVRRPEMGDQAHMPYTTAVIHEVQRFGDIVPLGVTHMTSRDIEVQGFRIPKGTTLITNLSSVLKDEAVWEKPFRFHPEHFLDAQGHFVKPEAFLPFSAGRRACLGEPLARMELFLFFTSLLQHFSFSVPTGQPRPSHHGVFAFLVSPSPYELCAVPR
Sequence of CYP3A4 (CYP3A) (P08684 2-503): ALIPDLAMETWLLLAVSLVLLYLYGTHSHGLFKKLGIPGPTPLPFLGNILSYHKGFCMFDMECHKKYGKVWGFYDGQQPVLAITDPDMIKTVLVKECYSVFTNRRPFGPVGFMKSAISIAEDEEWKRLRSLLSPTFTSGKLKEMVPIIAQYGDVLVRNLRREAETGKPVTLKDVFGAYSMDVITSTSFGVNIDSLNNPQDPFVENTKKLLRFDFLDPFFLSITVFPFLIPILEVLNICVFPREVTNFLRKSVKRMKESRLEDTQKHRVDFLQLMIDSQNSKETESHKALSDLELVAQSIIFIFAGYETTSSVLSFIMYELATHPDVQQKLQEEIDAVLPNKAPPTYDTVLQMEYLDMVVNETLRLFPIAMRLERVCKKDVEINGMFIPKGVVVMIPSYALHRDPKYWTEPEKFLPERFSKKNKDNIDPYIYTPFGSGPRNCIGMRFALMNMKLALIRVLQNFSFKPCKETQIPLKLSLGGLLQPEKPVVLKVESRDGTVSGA

Compound	IC50 [1, 8] [µM]	IC50 [2, 9] [µM]	inhibition in vivo at 30 mg/kg [3, 10] [%]	IC50 [4] [nM]	RLM ([5]; rat liver microsomes) [µL/min/mg]	HLM ([6]; human liver microsomes) [µL/min/mg]	IC50 ([7]; 2D6 IC50, CYP2D6 inhibition) [µM]	inhibition in vivo at 30 mg/kg [3, 11] [%]	IC50 [1, 12] [µM]	IC50 [2, 13] [µM]	IC50 [7, 14] [µM]	IC50 [1, 15] [µM]	IC50 [2, 16] [µM]	RLM ([5]; rat liver microsomal data) [µL/min/mg]	HLM ([6]; human liver microsomal data) [µL/min/mg]	IC50 [7, 17] [µM]	IC50 [1, 18] [µM]	IC50 [2, 19] [µM]
COCC(=O)N[C@@H](Cc1cc(F)cc(F)c1)[C@H](O)CN[C@H]1CC2(CCC2)Oc2c1cc(CC(C)(C)C)nc2-c1nccn1C [Example 596]	0.041	0.009	10 to 80	100	39	26	2.9	–	–	–	–	–	–	–	–	–	–	–
CC(=O)N[C@@H](Cc1cc(F)cc(-c2nccs2)c1)[C@H](O)CN[C@H]1CC2(CCC2)Oc2ncc(CC(C)(C)C)cc21 [Example 643, N-((1S,2R)-3-(((4′S)-6′-(2,2-dimethylpropyl)-3′,4′-dihydrospiro[cyclobutane-1,2′-pyrano[2,3-b]pyridin]-4′-yl)amino)-1-(3-fluoro-5-(1,3-thiazol-2-yl)benzyl)-2-hydroxypropyl)acetamide]	0.002	0.012	10 to 80	100	56	68	0.7	5 to 80	–	–	–	–	–	–	–	–	–	–
COCC(=O)N[C@@H](Cc1ccc(F)cc1)[C@H](O)CN[C@H]1CC(C)(C)Oc2c1cc(CC(C)C)c1c2OCO1 [Example 747]	–	–	10 to 80	200	217	125	–	–	0.209	0.243	9.1	–	–	–	–	–	–	–
COC(OC)C(=O)N[C@@H](Cc1ccc2c(c1)OCO2)[C@H](O)CN[C@H]1CC2(CCC2)Oc2ncc(CC(C)(C)C)cc21 [Example 523, N-((1S,2R)-1-(1,3-benzodioxol-5-ylmethyl)-3-(((4′S)-6′-(2,2-dimethylpropyl)-3′,4′-dihydrospiro[cyclobutane-1,2′-pyrano[2,3-b]pyridin]-4′-yl)amino)-2-hydroxypropyl)-2,2-dimethoxyacetamide]	–	–	10 to 80	100	–	–	–	5 to 80	–	–	–	0.019	0.033	94	37	5.4	–	–
C#Cc1cccc(C[C@H](NC(=O)COC)[C@H](O)CN[C@H]2CC3(CCC3)Oc3ncc(CC(C)(F)F)cc32)c1 [Example 829]	–	–	–	200	–	–	–	≥ 30	–	–	–	–	–	23	40	2.3	0.007	0.016
CO[C@H](C)C(=O)N[C@@H](Cc1cc(F)cc(F)c1)[C@H](O)CN[C@H]1CC2(CCC2)Oc2c1cc(CC(C)C)nc2-c1ccncc1 [Example 687]	–	–	10 to 80	≤ 30	91	27	–	–	0.008	0.016	0.2	–	–	–	–	–	–	–
COCC(=O)N[C@@H](Cc1cc(F)cc(F)c1)[C@H](O)CN[C@H]1CC2(CCC2)Oc2c1cc(CC(C)(C)C)nc2-c1ccncc1 [Example 528]	–	–	10 to 80	100	–	–	–	–	–	–	–	0.01	0.023	72	19	1.3	–	–
CC(=O)N[C@@H](Cc1cc(F)cc(F)c1)[C@H](O)CN[C@H]1CC2(CCC2)Oc2c(-c3ccncc3)cc(CC(C)C)cc21 [Example 673]	–	–	10 to 80	≤ 30	118	46	–	–	0.009	0.005	0.8	–	–	–	–	–	–	–
COC(OC)C(=O)N[C@@H](Cc1cccc(-c2ncco2)c1)[C@H](O)CN[C@H]1CC2(CCC2)Oc2ncc(CC(C)(C)C)cc21 [Example 826, N-((1S,2R)-3-(((4′S)-6′-(2,2-dimethylpropyl)-3′,4′-dihydrospiro[cyclobutane-1,2′-pyrano[2,3-b]pyridin]-4′-yl)amino)-2-hydroxy-1-(3-(1,3-oxazol-2-yl)benzyl)propyl)-2,2-dimethoxyacetamide]	–	–	10 to 80	200	–	–	–	5 to 80	–	–	–	–	–	55	66	0.9	0.012	0.013
COCC(=O)N[C@@H](Cc1cc(F)cc(-c2nccs2)c1)[C@H](O)CNC1CC2(CCC2)Oc2ncc(CC(C)(F)F)cc21 (stereo partly drawn) [Example 764, N-((1S,2R)-3-((6′-(2,2-difluoropropyl)-3′,4′-dihydrospiro[cyclobutane-1,2′-pyrano[2,3-b]pyridin]-4′-yl)amino)-1-(3-fluoro-5-(1,3-thiazol-2-yl)benzyl)-2-hydroxypropyl)-2-methoxyacetamide]	–	–	10 to 80	300	–	–	–	–	–	–	–	–	–	33	41	0.7	0.011	0.018
COCC(=O)N[C@@H](Cc1cc(F)cc(F)c1)[C@H](O)CN[C@H]1CC2(CCC2)Oc2c(-c3ccncc3)cc(CC(C)(C)C)cc21 [Example 488]	–	–	10 to 80	100	–	–	–	5 to 80	–	–	–	0.009	0.01	82	31	1.6	–	–
CC(=O)N[C@@H](Cc1cc(F)cc(-c2cncs2)c1)[C@H](O)CN[C@H]1CC2(CCC2)Oc2ncc(CC(C)(C)C)cc21 [Example 671, N-((1S,2R)-3-(((4′S)-6′-(2,2-dimethylpropyl)-3′,4′-dihydrospiro[cyclobutane-1,2′-pyrano[2,3-b]pyridin]-4′-yl)amino)-1-(3-fluoro-5-(1,3-thiazol-5-yl)benzyl)-2-hydroxypropyl)acetamide]	–	–	10 to 80	100	48	99	–	–	0.005	0.012	0.4	–	–	–	–	–	–	–
CO[C@H](C)C(=O)N[C@@H](Cc1ccc2c(c1)OCO2)[C@H](O)CN[C@H]1CC2(CCC2)Oc2ncc([C@@H]3CC3(C)C)cc21 [Example 578]	0.018	0.019	–	100	185	36	2	5 to 80	–	–	–	–	–	–	–	–	–	–
CO[C@H](C)C(=O)N[C@@H](Cc1cc(F)cc(F)c1)[C@H](O)CN[C@H]1CC2(CCC2)Oc2c1cc(CC(C)(C)C)nc2-c1cncn1C [Example 652]	0.028	0.02	10 to 80	160	50	26	2	–	–	–	–	–	–	–	–	–	–	–
CO[C@H](C)C(=O)N[C@@H](Cc1cccc(-c2nccs2)c1)[C@H](O)CN[C@H]1CC2(CCC2)Oc2ncc(CC(C)(C)F)cc21 [Example 831, (2R)-N-((1S,2R)-3-(((4′S)-6′-(2-fluoro-2-methylpropyl)-3′,4′-dihydrospiro[cyclobutane-1,2′-pyrano[2,3-b]pyridin]-4′-yl)amino)-2-hydroxy-1-(3-(1,3-thiazol-2-yl)benzyl)propyl)-2-methoxypropanamide]	–	–	10 to 80	200	–	–	–	–	–	–	–	–	–	45	21	0.8	0.024	0.047
